Like-named read-outs stand apart in the source and are kept apart here.
Key:
Hepa 1c1c7 cells = assay: Hepa 1c1c7 cell viability (cytotoxicity); format: cell-based, murine; conditions: Mus musculus
[1] = tested on: quinone reductase (QR), Hepa 1c1c7 cells; assay: Quinone reductase (QR) induction in Hepa 1c1c7 cells; format: cell-based, murine; conditions: for CI, chemoprevention index (IC50/CD): 2880 min
Excerpt: This test was used because the specific activity of QR rises concomitantly with other phase II enzymes in many animal tissues in response to various chemopreventive agents. The study included natural and synthetic B-ring substituted flavones, as well as biosynthetic precursor chalcones and flavanones.
Determination of Quinone Reductase Activity in Cell Cultures. To determine the potency of inducers, Hepa 1c1c7 murine hepatoma cells as described in the Gerhauser publication were placed in 96-well plates at a density of 1×10^4 cells/ml in 200 μl of medium. After a preincubation period of 24 hr, the media were decanted and 190 μl fresh media were added to each well. Ten (10) μl test agents dissolved in 10% DMSO (final concentration of DMSO is 0.5%) with a serial 2-fold dilutions were introduced to each well, and the plates were incubated for an additional 48 hours. Specific QR activity was determined by measuring the NADPH-dependent menadiol-mediated reduction of 3-(4, 5-dimethylthiazo-2-yl)-2,5-diphenyltetrazolium bromide to blue formazan formed per mg protein per minute. Protein was determined in an identical set of test plates by staining with crystal violet. Hepa 1c1c7 cells retain many characteristics of normal issues, particularly the capacity for carcinogen activation and metabolism. They are amenable to precise control of environmental, nutritional, and hormonal factors. […] Induction of QR activity was calculated by comparing the QR specific activity of agent-treated cells with that of solvent-treated cells, and a plot of ratio was generated. CD represents the concentration required to double QR induction. Chemopreventive index (CI) is an indexing value generated by comparing CD with IC50 (concentration for 50% inhibition of cell viability) values.
Induction of Quinone Reductase in Hepa 1c1c7 Cells. […] Modification of the B-ring of chalcones, flavanones, and flavones was hypothesized to induce torsion of the B-ring, and, therefor, simulate out-of-plane distortions characteristic of polycyclic aromatic hydrocarbons, such as DMBA. Induction of QR activity was calculated by comparing the QR specific activity of agent-treated cells with the QR specific activity of solvent-treated cells, and a plot of ratios was generated. CD represents the concentration required for a double fold of induction. CI (Chemopreventive Index) is a value obtained by comparing CD with IC50 (concentration for 50% inhibition of cell viability in […]).

cytochrome P4501A1 = target: T1, cytochrome P4501A1 (Rattus norvegicus, UniProt P00185); assay: biochemical
T1 sequence (P00185 1-524): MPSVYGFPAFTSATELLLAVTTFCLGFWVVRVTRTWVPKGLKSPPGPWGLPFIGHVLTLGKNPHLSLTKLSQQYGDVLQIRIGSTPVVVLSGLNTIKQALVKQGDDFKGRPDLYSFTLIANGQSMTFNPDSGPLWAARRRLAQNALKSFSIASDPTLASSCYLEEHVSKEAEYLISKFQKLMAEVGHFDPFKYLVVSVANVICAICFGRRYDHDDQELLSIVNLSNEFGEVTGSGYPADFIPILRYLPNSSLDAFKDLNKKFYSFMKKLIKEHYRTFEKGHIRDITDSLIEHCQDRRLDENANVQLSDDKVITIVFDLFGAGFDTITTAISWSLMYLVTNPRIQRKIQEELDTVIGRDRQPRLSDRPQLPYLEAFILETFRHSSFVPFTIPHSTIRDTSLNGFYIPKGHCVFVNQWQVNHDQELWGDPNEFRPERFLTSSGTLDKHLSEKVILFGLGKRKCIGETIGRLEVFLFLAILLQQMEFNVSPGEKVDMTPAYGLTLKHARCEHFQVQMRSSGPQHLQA
Protocol: Inhibition of DMBA-induced Cytochrome P4501A1 Activity. Female Sprague Dawley rats (43 days of age) were treated with DMBA (i.g.), and liver microsomes were isolated through differential centrifugation. Cytochrome P4501A1 activity was monitored by assessing EROD activity. Briefly, 200 μl of microsomal protein (2 mg/ml) were added to a reaction mixture containing 640 μl of 0.05 M Tris-HCl buffer (pH 7.5), 100 μl of BSA (10 mg/ml in Tris buffer), 20 μl of 0.25 M MgCl2, 40 μl of cofactor solution (0.3282 g of NADP and 1.417 g of glucose 6-phosphate in 40 ml of 1.15% KCl), 2.5 units of glucose 6-phosphate dehydrogenase, 10 μl of substrate (1 mg of ethoxyresorufin in 10 ml of methanol) and 10 μl of various concentrations of 4'-BF in DMSO (α-naphthoflavone as positive control; DMSO as negative control). After incubating at 37° C. for 4 min, the reactions were terminated by the addition of 2 ml of methanol. Samples were then centrifuged for 20 min at 2,000×g. and 200 μl of the supernatant fractions were transferred to 96-well plates and read on a spectrofluorimeter (500 nm excitation and 585 nm emission). Assays were conducted in triplicate and the percent of inhibition was calculated as: [1-(sample A-blank)/(DMSO A-blank)]×100.

[2] = Hepa-1c1c7, Hepa 1c1c7 cells, read-out: IC50, concentration for 50% inhibition of cell viability
[3] = Mus musculus, Hepa-1c1c7, 48 h, Hepa 1c1c7 cells, 48 h, read-out: CD, concentration to double the specific activity of QR
[4] = Hepa 1c1c7 cells, 48 h, read-out: CD, concentration to double the specific activity of QR
[5] = Hepa-1c1c7, read-out: IC50, concentration for 50% inhibition of cell viability
[6] = Mus musculus, Hepa-1c1c7, 48 h, read-out: CD, concentration to double the specific activity of QR, Hepa 1c1c7 cells, 48 h

Structure (SMILES) | IC50 (Hepa 1c1c7 cells; [2]) [µM] | Cq ([1]; Hepa 1c1c7 cells) | CI, chemoprevention index (IC50/CD) [1] | EC (2-fold) [1, 3] [µM] | EC (2-fold) [1, 4] [µM] | IC50 (Hepa 1c1c7 cells; [5]) [µM] | EC (2-fold) [1, 6] [µM] | EC (2-fold) ([1]; Hepa 1c1c7 cells, 48 h, listed as 3'-chloroflavone, read-out: CD, concentration to double the specific activity of QR) [µM] | IC50 (cytochrome P4501A1) [nM]
O=C1CC(c2cccc3ccccc23)Oc2ccccc21 (centres unmarked) | 43 | 8.6 µM | 24 | 1.8 | – | – | – | – | –
O=c1cc(-c2ccccc2F)oc2ccccc12 [2'-Fluoroflavone] | > 83 | 10 µM | 104 | 0.8 | 0.80 | – | – | – | –
COc1cccc(OC)c1/C=C/C(=O)c1ccccc1O [2'-Hydroxy-2,6-dimethoxychalcone] | 14 | 3.7 µM | 26 | 0.53 | 0.54 | – | – | – | –
COc1ccccc1/C=C/C(=O)c1ccccc1O [2'-Hydroxy-2-methoxychalcone] | 17 | 1.8 µM | 55 | 0.31 | – | – | – | – | –
Cc1ccccc1/C=C/C(=O)c1ccccc1O [2'-Hydroxy-2-methylchalcone] | 36 | 9.0 µM | 54 | 0.67 | – | – | – | – | –
O=C(/C=C/c1ccccc1[N+](=O)[O-])c1ccccc1O [2'-Hydroxy-2-nitrochalcone] | 11 | 3.6 µM | 37 | 0.3 | – | – | – | – | –
O=C(/C=C/c1cccc(C(F)(F)F)c1)c1ccccc1O [2'-Hydroxy-3-trifluoromethylchalcone] | 12.8 | 0.55 µM | > 23 | < 0.55 | – | – | – | – | –
O=C(/C=C/c1ccc(C(F)(F)F)cc1)c1ccccc1O [2'-Hydroxy-4-trifluoromethylchalcone] | 55 | 1 µM | > 100 | < 0.55 | – | – | – | – | –
COc1ccccc1C1CC(=O)c2ccccc2O1 (centres unmarked) [2'-Methoxyflavanone] | > 79 | 6.9 µM | > 125 | 0.63 | – | – | – | – | –
Cc1ccccc1C1CC(=O)c2ccccc2O1 (centres unmarked) [2'-Methylflavanone] | 81 | 6.8 µM | 81 | 1 | 1.00 | – | – | – | –
COc1ccccc1-c1cc(=O)c2ccccc2o1 [2'-methoxyflavone] | – | – | – | 0.01 to 1 | – | – | – | – | –
O=C(/C=C/c1ccccc1Br)c1ccccc1O [2-Bromo-2'-hydroxychalcone] | – | 2.0 µM | 21 | – | – | 11 | 0.53 | – | –
O=c1cc(-c2cccc(Br)c2)oc2ccccc12 [3'-Bromoflavone] | 3.2 | 4.4 µM | 32 | 0.1 | – | – | – | – | –
O=c1cc(-c2cccc(Cl)c2)oc2ccccc12 [3'-Chloroflavone] | – | toxic | > 40 | – | < 0.58 | 23 | – | 0.27 | –
O=c1cc(-c2cccc(F)c2)oc2ccccc12 [3'-Fluoroflavone] | 42 | 1.24 µM | 63 | 0.67 | – | – | – | – | –
O=C(/C=C/c1cccc(Br)c1)c1ccccc1O [3-Bromo-2'-hydroxychalcone] | 21 | 8.2 µM | 16 | 1.3 | – | – | – | – | –
O=C1CC(c2ccc(Br)cc2)Oc2ccccc21 (centres unmarked) [4'-Bromoflavanone] | 63 | 11 µM | 27 | 2.3 | – | – | – | – | –
O=c1cc(-c2ccc(Cl)cc2)oc2ccccc12 [4'-Chloroflavone] | – | 0.66 µM | > 5000 | – | 0.02 | > 78 | 0.016 | – | –
O=c1cc(-c2ccc(F)cc2)oc2ccccc12 [4'-Fluoroflavone] | > 83 | 32 µM | > 24 | 3.4 | – | – | – | – | –
O=c1cc(-c2ccc(C(F)(F)F)cc2)oc2ccccc12 [4'-Trifluoromethylflavone] | 90 | 0.1 µM | 3000 | 0.03 | – | – | – | – | –
O=C(/C=C/c1ccc(Br)cc1)c1ccccc1O [4-Bromo-2'-hydroxychalcone] | – | 66 µM | 4 | – | – | 66 | 18 | – | –
O=C(/C=C/c1ccccc1)c1ccccc1 [Chalcone, reference compound] | 33 | – | – | – | – | – | – | – | –
O=c1cc(-c2ccccc2)oc2ccccc12 [Flavone] | 106 | 8.3 µM | 42 | 2.5 | – | – | – | – | –
O=c1cc(-c2ccccc2)oc2c1ccc1ccccc12 [a-naphthoflavone, α-naphthoflavone, reference compound] | – | – | – | – | – | – | – | – | 90

Reference: patent US6046231A, “Use of 4'-bromoflavone in a cancer chemopreventative composition and method” (The Board of Trustees of the University of Illinois, priority 1999, dated 2000)
